Test results: patent US11040035B2, “3-oxo-2,6-diphenyl-2,3-dihydropyridazine-4-carboxamides” (BAYER PHARMA AKTIENGESELLSCHAFT, priority 2016, dated 2021)

Tests used:
AHR [1] = biological target: T1, AHR (Homo sapiens, UniProt P35869); assay: In vitro assay 2: agonism in human cell line (transactivation assay)
T1 sequence (P35869 11-848): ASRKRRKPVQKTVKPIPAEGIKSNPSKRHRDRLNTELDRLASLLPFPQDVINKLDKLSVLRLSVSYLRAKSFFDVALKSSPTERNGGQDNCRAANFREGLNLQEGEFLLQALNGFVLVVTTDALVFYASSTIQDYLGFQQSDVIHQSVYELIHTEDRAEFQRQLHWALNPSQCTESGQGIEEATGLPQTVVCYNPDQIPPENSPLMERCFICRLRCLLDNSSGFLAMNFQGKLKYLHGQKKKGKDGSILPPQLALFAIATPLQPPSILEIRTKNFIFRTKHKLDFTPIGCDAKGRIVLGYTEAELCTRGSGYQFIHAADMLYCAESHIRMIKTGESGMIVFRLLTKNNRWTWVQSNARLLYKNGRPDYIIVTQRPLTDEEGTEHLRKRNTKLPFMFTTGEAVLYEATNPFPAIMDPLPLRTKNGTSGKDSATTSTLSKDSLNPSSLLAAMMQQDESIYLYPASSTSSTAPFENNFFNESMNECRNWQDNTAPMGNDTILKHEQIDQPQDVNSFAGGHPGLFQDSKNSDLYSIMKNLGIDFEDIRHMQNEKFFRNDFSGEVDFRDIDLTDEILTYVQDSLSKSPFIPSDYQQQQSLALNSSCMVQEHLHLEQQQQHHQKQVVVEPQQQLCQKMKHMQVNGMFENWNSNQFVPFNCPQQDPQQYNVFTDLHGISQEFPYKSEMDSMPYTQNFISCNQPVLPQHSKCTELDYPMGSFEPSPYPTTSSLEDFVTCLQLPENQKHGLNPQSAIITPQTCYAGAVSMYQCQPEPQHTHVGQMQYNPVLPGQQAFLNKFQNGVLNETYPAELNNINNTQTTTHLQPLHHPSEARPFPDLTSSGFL

AHR [2] = biological target: T1, AHR; assay: In vitro assay 1: antagonism in human cell line (transactivation assay, kynurenic acid prestimulated); details: Assay 1: AHR-luc Hum Antagonism IC50 [M], 150 μM kynurenic acid, 20 hours, firefly luciferase
[3] = Assay 2: AHR-luc Hum Agonism IC50 [M], no kynurenic acid, 20 hours, firefly luciferase

IC50 (AHR [1]; [3])	IC50 (AHR [2])	IC50 (AHR [1]; read-out: Assay 2: AHR-luc Hum Agonism IC50, no kynurenic acid, 20 hours, firefly luciferase)	Structure (SMILES)
> 2e-05 M	1.67e-08 M	–	COCCC(CO)NC(=O)c1cc(-c2ccc(C(F)(F)F)cc2)nn(-c2cccc(F)c2)c1=O (single isomer, unassigned; (-)) [Example 313, (−)-2-(3-fluorophenyl)-N-(1-hydroxy-4-methoxybutan-2-yl)-3-oxo-6-[4-(trifluoromethyl)-phenyl]-2,3-dihydropyridazine-4-carboxamide]
> 2e-05 M	2.75e-07 M	–	CC(O)C(C)NC(=O)c1cc(-c2ccc(Cl)c(Cl)c2)nn(-c2cccc(F)c2)c1=O (stereo not shown) [Example 304, 6-(3,4-Dichlorophenyl)-2-(3-fluorophenyl)-N-(3-hydroxybutan-2-yl)-3-oxo-2,3-dihydropyridazine-4-carboxamide]
> 2e-05 M	8.72e-08 M	–	COc1ccc(-c2cc(C(=O)N[C@@H](C)CO)c(=O)n(-c3cccc(F)c3)n2)cc1 [Example 297, 2-(3-Fluorophenyl)-N-[(2S)-1-hydroxypropan-2-yl]-6-(4-methoxyphenyl)-3-oxo-2,3-dihydropyridazine-4-carboxamide]
> 2e-05 M	6.9e-07 M	–	CN1C[C@H](O)[C@H](NC(=O)c2cc(-c3ccc(Cl)cc3)nn(-c3cccc(F)c3)c2=O)C1 (relative stereo) [Example 388, 6-(4-chlorophenyl)-2-(3-fluorophenyl)-N-[cis-4-hydroxy-1-methylpyrrolidin-3-yl]-3-oxo-2,3-dihydropyridazine-4-carboxamide]
> 2e-05 M	4.58e-08 M	–	CC(NC(=O)c1cc(-c2ccc(Cl)cc2)nn(-c2cccc(F)c2)c1=O)C(O)CO (stereo not shown) [Example 337, 6-(4-chlorophenyl)-N-(3,4-dihydroxybutan-2-yl)-2-(3-fluorophenyl)-3-oxo-2,3-dihydropyridazine-4-carboxamide]
> 2e-05 M	1.98e-07 M	–	CC(NC(=O)c1cc(-c2ccc(Cl)cc2)nn(-c2cccc(F)c2)c1=O)C(O)CO (single isomer, unassigned) [Example 346, 6-(4-chlorophenyl)-N-(3,4-dihydroxybutan-2-yl)-2-(3-fluorophenyl)-3-oxo-2,3-dihydropyridazine-4-carboxamide]

The remaining lines, values behind:

Structure (SMILES)	IC50 (AHR [1]; [3])	IC50 (AHR [2])	IC50 (AHR [1]; read-out: Assay 2: AHR-luc Hum Agonism IC50, no kynurenic acid, 20 hours, firefly luciferase)
CC(O)C(C)NC(=O)c1cc(-c2ccc(OC(F)(F)F)cc2)nn(-c2cccc(F)c2)c1=O (stereo not shown) [Example 179, 2-(3-Fluorophenyl)-N-(3-hydroxybutan-2-yl)-3-oxo-6-[4-(trifluoromethoxy)phenyl]-2,3-dihydropyridazine-4-carboxamide]	> 2e-05 M	7.36e-08 M	–
C[C@H](O)CNC(=O)c1cc(-c2ccc(Cl)cc2)nn(-c2cccc(F)c2)c1=O [Example 36, 6-(4-Chlorophenyl)-2-(3-fluorophenyl)-N-[(2S)-2-hydroxypropyl]-3-oxo-2,3-dihydropyridazine-4-carboxamide]	> 2e-05 M	2.95e-07 M	–
O=C(NC(CO)CCO)c1cc(-c2ccc(Cl)cc2)nn(-c2cccc(F)c2)c1=O (single isomer, unassigned; (-)) [Example 226, (−)-6-(4-Chlorophenyl)-N-(1,4-dihydroxybutan-2-yl)-2-(3-fluorophenyl)-3-oxo-2,3-dihydropyridazine-4-carboxamide]	–	1.42e-07 M	> 2e-05 M
O=C(NC1(CO)CCCC1)c1cc(-c2ccc(Cl)cc2)nn(-c2cccc(F)c2)c1=O [Example 214, 6-(4-Chlorophenyl)-2-(3-fluorophenyl)-N-[1-(hydroxymethyl)cyclopentyl]-3-oxo-2,3-dihydropyridazine-4-carboxamide]	> 2e-05 M	8.32e-08 M	–
COCCC(CO)NC(=O)c1cc(-c2ccc(Cl)cc2)nn(-c2cccc(F)c2)c1=O (racemic) [Example 227, 6-(4-Chlorophenyl)-2-(3-fluorophenyl)-N-[(2RS)-1-hydroxy-4-methoxybutan-2-yl]-3-oxo-2,3-dihydropyridazine-4-carboxamide]	> 2e-05 M	3.57e-07 M	–
